Laboratory results: ChEMBL document CHEMBL5727761, “1-cyano-pyrrolidine compounds as USP30 inhibitors” (2020)

Target: T1, Ubiquitin carboxyl-terminal hydrolase 30 (Homo sapiens, UniProt Q70CQ3)
T1 sequence (Q70CQ3 whole entry): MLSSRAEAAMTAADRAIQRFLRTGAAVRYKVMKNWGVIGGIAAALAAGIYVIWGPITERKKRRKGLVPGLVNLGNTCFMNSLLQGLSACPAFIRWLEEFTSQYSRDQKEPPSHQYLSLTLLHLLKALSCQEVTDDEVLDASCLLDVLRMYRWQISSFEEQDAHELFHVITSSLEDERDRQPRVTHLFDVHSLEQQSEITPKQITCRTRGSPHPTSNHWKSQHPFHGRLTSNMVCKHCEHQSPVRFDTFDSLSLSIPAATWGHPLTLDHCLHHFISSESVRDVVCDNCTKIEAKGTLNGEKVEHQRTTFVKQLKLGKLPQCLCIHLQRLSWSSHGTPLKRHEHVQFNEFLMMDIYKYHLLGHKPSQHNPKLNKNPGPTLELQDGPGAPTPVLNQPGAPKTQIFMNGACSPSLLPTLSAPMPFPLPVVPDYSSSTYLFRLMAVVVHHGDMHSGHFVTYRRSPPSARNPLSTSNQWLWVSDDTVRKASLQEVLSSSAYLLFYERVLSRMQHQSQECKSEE
Test: Biochemical Fluorescence Intensity Kinetic Assay/Biochemical Fluorescence Intensity Assay: USP30 Biochemical Fluorescence Intensity Kinetic Assay.Reactions were performed in duplicate in black 384 well plates (small volume, Greiner 784076) in a final reaction volume of 21 μl. USP30 CD (Boston Biochem E-582 or 57-517, #64-0057-050 Ubiquigent) was diluted in reaction buffer (40 mM Tris, pH 7.5, 0.005% Tween 20, 0.5 mg/ml BSA, 5 mM beta-mercaptoethanol) to the equivalent of 0, 0.0005, 0.001, 0.005, and 0.01 μl/well. Buffer was optimised for optimal temperature, pH, reducing agent, salts, time of incubation, and detergent. Reactions were initiated by the addition of Ubiquitin-Rhodamine 110 (U-555, Boston Biochem) at a final concentration of 100 nM. Reactions were incubated at room temperature and read every 2 min for 120 min. Readings were performed on a Pherastar Plus (BMG Labtech). […] A typical 8-point dilution series would be 100, 30, 10, 3, 1, 0.3, 0.1, 0.03 μM final. Reactions were performed in duplicate in black 384 well plates (small volume, Greiner 784076) in a final reaction volume of 21 μl. Either 1 μl of 50% DMSO or diluted compound was added to the plate. USP30 was diluted in reaction buffer (40 mM Tris, pH 7.5, 0.005% Tween 20, 0.5 mg/ml BSA, 5 mM beta-mercaptoethanol) to the equivalent of 0.001 μl/well and 10 μl of diluted USP30 was added to the compound. […]

SMILES	IC50
N#CN1C[C@H]2CCN(C(=O)N3CCc4ccccc43)[C@H]2C1	in the range around 5.5 µM
N#CN1CC[C@@H](NC(=O)c2ccc(N3CCOCC3)cc2)C1	in the range around 0.55 µM
